Test systems include OVCAR-4 ovarian; HCC-2998 colon; UACC-257 melanoma; KM12 colon; SF-539 CNS; IGROV1 ovarian; SR leukemia; HS 578T breast; UACC-62 melanoma; OVCAR-8 ovarian.
Holding throughout (assay): inhibition of tumour cell growth, NCI panel, 48 h

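Results reflect a 48-hour exposure of cells in 96-well plates to compound at five concentrations. GI50 = concentration required for 50% inhibition of growth. TGI: total growth inhibition.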

For the compound `Cc1cc(N(CCNc2ccnc3cc(Cl)ccc23)Cc2ccc3c(c2)OCO3)nc(N2CCCC2)n1`, the GI50 with OVCAR-4 ovarian is 1.39 µM; with HCC-2998 colon, 1.89 µM; with UACC-257 melanoma it was 1.64 µM; in the test with KM12 colon it was 2.7 µM; with SF-539 CNS it was 1.6 µM; with IGROV1 ovarian, 1.54 µM. For the same compound, the GI50 with SR leukemia was 0.25 µM; in the test on HS 578T breast, 1.72 µM; in the test with UACC-62 melanoma it was 1.88 µM; with OVCAR-8 ovarian, 1.91 µM. For the same compound, the TGI was 3.24 µM in the test on OVCAR-4 ovarian; 3.9 µM with HCC-2998 colon; 3.24 µM with UACC-257 melanoma; 11.5 µM with KM12 colon; 3.09 µM with SF-539 CNS; 3.64 µM in the test on IGROV1 ovarian. Moreover, the TGI was 0.635 µM with SR leukemia, 5.02 µM in the test with HS 578T breast, 3.49 µM in the test on UACC-62 melanoma and 5.01 µM in the test on OVCAR-8 ovarian.

On to `Cc1c(C(N)=O)sc2nc(C)n(/N=c3\scc(-c4ccccc4)n3Cc3ccccc3)c(=O)c12`, for which the GI50 in the test on OVCAR-4 ovarian is 2.5 µM; with HCC-2998 colon, 3.05 µM; in the test with UACC-257 melanoma, 3.56 µM; in the test with KM12 colon it was 3.37 µM; with SF-539 CNS, 4.02 µM; in the test with IGROV1 ovarian, 1.43 µM. Moreover, the GI50 is 5.74 µM in the test with SR leukemia, 3.85 µM in the test with HS 578T breast, 4.26 µM in the test on UACC-62 melanoma and 3.49 µM in the test on OVCAR-8 ovarian. Also, the TGI was above 100 µM in the test with OVCAR-4 ovarian; above 100 µM with HCC-2998 colon; 24.3 µM with UACC-257 melanoma; above 100 µM in the test on KM12 colon; above 100 µM with SF-539 CNS; 6.31 µM in the test with IGROV1 ovarian. Moreover, the TGI was above 100 µM with SR leukemia, above 100 µM in the test with HS 578T breast, 83.2 µM in the test on UACC-62 melanoma and above 100 µM in the test on OVCAR-8 ovarian.

For the compound `CSc1ccc(C(=O)/C=C/c2ccc(Cl)cc2Cl)cc1`, the GI50 in the test with OVCAR-4 ovarian is 21.8 µM; with HCC-2998 colon, 17.2 µM; with UACC-257 melanoma, 24 µM; with KM12 colon, 22.2 µM; in the test with SF-539 CNS, 22 µM; in the test with IGROV1 ovarian it was 15.6 µM. The GI50 with SR leukemia is 0.351 µM; in the test with HS 578T breast it was 28.6 µM; in the test on UACC-62 melanoma, 24.3 µM; with OVCAR-8 ovarian, 20.3 µM. The TGI stood at 77.2 µM in the test on OVCAR-4 ovarian; 35.8 µM with HCC-2998 colon; 91.4 µM in the test on UACC-257 melanoma; 51.8 µM in the test on KM12 colon; 46.9 µM in the test on SF-539 CNS; 31.9 µM in the test with IGROV1 ovarian. Also, the TGI in the test with SR leukemia is 0.909 µM; with HS 578T breast it was 68.4 µM; in the test on UACC-62 melanoma it was 78.5 µM; in the test on OVCAR-8 ovarian, 43.4 µM.

The values above are taken from PubChem BioAssay (NCI).
